Source: ChEMBL document CHEMBL5584291, “Rational design of small-sized peptidomimetic inhibitors disrupting protein-protein interaction” (RSC Med Chem, 2024)
*1 amine or outer side, *2 acyl side, *3 side chain or, on linkers, in order; H or OH if unused. Where a SMILES comes first, the peptide text is derived from it. Bridges are numbered along the chain shown (N, C = ends). [ ]: non-standard residue; d: D form. The star is where a group is joined. ξ: configuration not given here. X2 = c1ccc(-c2cn(CC3CCCCC3)c([C@@H]3CCCN3*)n2)cc1; dαMeDab = C[C@](CCN[*:3])(N[*:1])C(=O)[*:2]; X1 = NC(CO)C(=O)NC(Cc1ccccc1)C(=O)NCCCCN*; Ala(cPent) = N[C@@H](CC1CCCC1)C(=O)O; Arg(Me) = CNC(=N)NCCC[C@H](N)C(=O)O; d(αMeK) = C[C@@](N)(CCCCN)C(=O)O; Pentanoyl(4-Me) = CC(C)CCC(=O)*; dPhg = N[C@@H](C(=O)O)c1ccccc1; Isobutyryl = CC(C)C(=O)*; ξE = NC(CCC(=O)O)C(=O)O; Abu = CC[C@H](N)C(=O)O; Dap = NC[C@H](N)C(=O)O

Columns and labels:
[1] = Inhibition of human full length WDR5/RbBP5 (1 to 538 residues)/ASH2L (1 to 635 residues) expressed in Rosetta2 BL21 (DE3) pLysS incubated for 90 mins by SPA based histone methyltransferase assay
[2] = tested on: Splenocyte; assay: Inhibition of mouse splenocyte proliferation at 100 nM relative to control; format: functional
[3] = tested on: B16-F10; assay: Antitumor activity against mouse B16-F10 cells xenografted in C57BL/6 mouse assessed as reduction in lung metastasis at 5 mg/kg, ip administered once daily for 14 days relative to control; format: functional; set-up: scale not given: the % may be the effect or the level left; settings: time 14 day
[4] = target: Histone-lysine N-methyltransferase, H3 lysine-79 specific (Homo sapiens, UniProt Q8TEK3); assay: Binding affinity to DOT1L (unknown origin) assessed as inhibition constant
Chain of Histone-lysine N-methyltransferase, H3 lysine-79 specific (Q8TEK3 whole entry): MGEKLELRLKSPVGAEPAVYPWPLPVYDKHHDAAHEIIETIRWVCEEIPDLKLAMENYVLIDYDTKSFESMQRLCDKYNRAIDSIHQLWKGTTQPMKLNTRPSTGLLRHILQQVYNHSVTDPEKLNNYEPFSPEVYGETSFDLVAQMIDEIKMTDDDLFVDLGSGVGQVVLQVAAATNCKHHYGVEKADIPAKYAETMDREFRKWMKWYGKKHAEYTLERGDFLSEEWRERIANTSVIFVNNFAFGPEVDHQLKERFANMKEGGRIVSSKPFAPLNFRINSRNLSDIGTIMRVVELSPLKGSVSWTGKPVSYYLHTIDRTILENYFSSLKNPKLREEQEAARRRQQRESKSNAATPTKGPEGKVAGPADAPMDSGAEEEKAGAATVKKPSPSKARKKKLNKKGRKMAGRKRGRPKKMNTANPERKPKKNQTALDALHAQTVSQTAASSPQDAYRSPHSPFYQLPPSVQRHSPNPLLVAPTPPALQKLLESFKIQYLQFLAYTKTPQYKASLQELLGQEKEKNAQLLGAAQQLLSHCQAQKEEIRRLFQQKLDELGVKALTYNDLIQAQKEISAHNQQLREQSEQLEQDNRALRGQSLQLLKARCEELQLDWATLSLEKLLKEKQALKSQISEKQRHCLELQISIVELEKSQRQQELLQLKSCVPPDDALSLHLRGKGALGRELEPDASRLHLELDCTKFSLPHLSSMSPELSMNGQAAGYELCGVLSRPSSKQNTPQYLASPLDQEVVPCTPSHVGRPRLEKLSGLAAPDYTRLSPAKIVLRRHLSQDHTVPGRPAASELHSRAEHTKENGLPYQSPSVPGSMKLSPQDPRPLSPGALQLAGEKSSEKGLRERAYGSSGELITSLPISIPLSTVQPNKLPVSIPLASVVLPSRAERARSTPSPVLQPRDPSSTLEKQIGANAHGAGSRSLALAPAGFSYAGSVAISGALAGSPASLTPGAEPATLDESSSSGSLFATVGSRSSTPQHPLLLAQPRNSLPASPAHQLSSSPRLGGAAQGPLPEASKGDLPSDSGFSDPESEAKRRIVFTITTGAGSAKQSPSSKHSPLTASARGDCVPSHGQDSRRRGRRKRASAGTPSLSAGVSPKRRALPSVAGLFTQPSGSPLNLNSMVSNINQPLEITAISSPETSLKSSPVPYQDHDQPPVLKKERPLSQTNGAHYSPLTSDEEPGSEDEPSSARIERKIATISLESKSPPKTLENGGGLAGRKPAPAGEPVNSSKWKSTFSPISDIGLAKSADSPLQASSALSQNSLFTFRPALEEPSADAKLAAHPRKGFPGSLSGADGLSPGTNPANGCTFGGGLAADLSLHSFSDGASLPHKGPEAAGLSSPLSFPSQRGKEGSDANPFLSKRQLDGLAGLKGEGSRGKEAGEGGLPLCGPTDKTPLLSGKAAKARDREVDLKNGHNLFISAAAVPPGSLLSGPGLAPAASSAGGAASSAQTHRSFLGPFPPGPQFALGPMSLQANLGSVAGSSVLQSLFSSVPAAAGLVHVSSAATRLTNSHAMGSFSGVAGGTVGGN

[5] = target: Programmed cell death protein 1/Programmed cell death 1 ligand 1 (Homo sapiens, UniProt Q15116+Q9NZQ7); assay: Inhibition of PD-1/PD-L1 (unknown origin) protein-protein interaction by HTRF assay; format: protein-complex assay
Chain of Programmed cell death protein 1/Programmed cell death 1 ligand 1 (Q15116 whole entry): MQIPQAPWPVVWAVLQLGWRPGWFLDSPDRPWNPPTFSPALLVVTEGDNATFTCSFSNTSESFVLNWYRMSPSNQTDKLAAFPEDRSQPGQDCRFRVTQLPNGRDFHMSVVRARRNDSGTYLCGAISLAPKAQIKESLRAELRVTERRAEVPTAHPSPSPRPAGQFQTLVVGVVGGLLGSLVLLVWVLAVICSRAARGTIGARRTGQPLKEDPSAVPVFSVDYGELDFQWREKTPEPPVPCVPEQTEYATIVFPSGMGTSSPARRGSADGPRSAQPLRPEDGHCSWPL
Chain of Programmed cell death protein 1/Programmed cell death 1 ligand 1 (Q9NZQ7 whole entry): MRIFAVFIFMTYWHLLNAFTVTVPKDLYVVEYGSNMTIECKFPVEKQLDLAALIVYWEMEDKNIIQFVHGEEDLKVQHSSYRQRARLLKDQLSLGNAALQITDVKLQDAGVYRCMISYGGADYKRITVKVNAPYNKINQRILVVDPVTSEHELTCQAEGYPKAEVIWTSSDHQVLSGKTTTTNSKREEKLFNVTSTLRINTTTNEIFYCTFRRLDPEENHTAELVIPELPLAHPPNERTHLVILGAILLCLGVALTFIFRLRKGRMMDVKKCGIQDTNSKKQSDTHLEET

## CC[C@@H]1NC(=O)[C@H](CCCNC(=N)NC)NC(=O)[C@](C)(NC(=O)C(C)C)CCNC(=O)[C@@H](c2ccccc2)NC1=O (Isobutyryl-[dαMeDab][Arg(Me)][Abu][dPhg]; lactam 1-C)
[1]
  IC50: 0.9 nM

## C[C@H](O)[C@H](NC(=O)N[C@@H](CC(N)=O)C(=O)NNC(=O)[C@@H](N)CO)C(=O)O
[2]
  inhibition at 0.1 µM: 68%

## C[C@@H](O)[C@@H]1NCC(=O)C(NC(=O)[C@@H](N)CO)CCC(=O)NCCCCC(C(=O)N[C@@H](CO)C(=O)N[C@@H](Cc2ccccc2)C(N)=O)NC(=O)[C@H](CO)NC1=O (stereo partly drawn)
[3]
  Activity: 54%

## CC(C)CCC(=O)N1CCC[C@H]1C(=O)N[C@H](C(=O)N[C@@H](CN)C(=O)N[C@@H](CC1CCCC1)C(=O)N1CCC[C@H]1c1nc(-c2ccccc2)cn1CC1CCCCC1)C(C)C ({Pentanoyl(4-Me)}-PV[Dap][Ala(cPent)]-X2)
[4]
  Ki: 23 nM

## CC[C@@H]1NC(=O)[C@H](CCCNC(=N)N)NC(=O)[C@](C)(NC(=O)C(C)C)CCCCNC(=O)[C@@H](c2ccccc2)NC1=O (Isobutyryl-[d(αMeK)]R[Abu][dPhg]; lactam 1-C)
[1]
  IC50: 0.9 nM

## C[C@@H](O)[C@H](NC(=O)[C@H](CC(N)=O)NC(=O)[C@@H](N)CO)C(=O)N[C@@H](CO)C(=O)NC(CCC(=O)NCCCCNC(=O)C(Cc1ccccc1)NC(=O)C(N)CO)C(N)=O (stereo partly drawn) (H-SNTS[ξE](X1)-NH2)
[3]
  Activity: 4%

## NCCCC[C@H](NC(=O)N[C@@H](CC(N)=O)C(=O)NNC(=O)[C@@H](N)CO)C(=O)O
[2]
  inhibition at 0.1 µM: 87%

## CC(O)[C@H](NC(=O)N[C@@H](CC(N)=O)C1NC([C@@H](N)CO)=NO1)C(=O)O (stereo partly drawn)
[5]
  IC50: 17 nM
